According to the kinase profiling compilation of Christmann-Franck et al. (2016):

Key:
Conditions in all cases: compound 10.0 µM
CAMK1D (human) = CAMK1D (human) (UniProt Q8IU85)
[1] = test system: RET (human), P07949 [M918T]
WEE1 (human) = WEE1 (human) (UniProt P30291)
CDKL2 (human) = CDKL2 (human) (UniProt Q92772)
TGFBR1 (human) = TGFBR1 (human) (UniProt P36897)
RIOK1 (human) = RIOK1 (human) (UniProt Q9BRS2)
STK36 (human) = STK36 (human) (UniProt Q9NRP7)
IKBKE (human) = IKBKE (human) (UniProt Q14164)
DYRK2 (human) = DYRK2 (human) (UniProt Q92630)
[2] = test system: KIT (human), P10721 [V559D/V654A]
MAPK7 (human) = MAPK7 (human) (UniProt Q13164)
PIK3C2G (human) = PIK3C2G (human) (UniProt O75747)
CDK19 (human) = CDK19 (human) (UniProt Q9BWU1)
PLK4 (human) = PLK4 (human) (UniProt O00444)
CAMK1G (human) = CAMK1G (human) (UniProt Q96NX5)
NUAK1 (human) = NUAK1 (human) (UniProt O60285)
MARK3 (human) = MARK3 (human) (UniProt P27448)
[3] = test system: KIT (human), P10721 [L576P]
MELK (human) = MELK (human) (UniProt Q14680)
WEE2 (human) = WEE2 (human) (UniProt P0C1S8)
HIPK1 (human) = HIPK1 (human) (UniProt Q86Z02)
MAP4K1 (human) = MAP4K1 (human) (UniProt Q92918)
TSSK1B (human) = TSSK1B (human) (UniProt Q9BXA7)
AURKA (human) = AURKA (human) (UniProt O14965)
TBK1 (human) = TBK1 (human) (UniProt Q9UHD2)
[4] = test system: FGFR3 (human), P22607 [G697C]
MKNK2 (human) = MKNK2 (human) (UniProt Q9HBH9)
MAP2K7 (human) = MAP2K7 (human) (UniProt O14733)
[5] = target: TYK2 JH1 catalytic (human) (UniProt P29597)
EIF2AK2 (human) = EIF2AK2 (human) (UniProt P19525)
LYN (human) = LYN (human) (UniProt P07948)
PKN3 (M.tuberculosis) = PKN3 (M.tuberculosis) (UniProt Q6P5Z2)
MUSK (human) = MUSK (human) (UniProt O15146)
GRK7 (human) = GRK7 (human) (UniProt Q8WTQ7)
FGFR1 (human) = FGFR1 (human) (UniProt P11362)
NLK (human) = NLK (human) (UniProt Q9UBE8)
DDR2 (human) = DDR2 (human) (UniProt Q16832)
NEK5 (human) = NEK5 (human) (UniProt Q6P3R8)
PIP4K2C (human) = PIP4K2C (human) (UniProt Q8TBX8)
CAMK4 (human) = CAMK4 (human) (UniProt Q16566)
STK32C (human) = STK32C (human) (UniProt Q86UX6)

Chain of CAMK1D (human) (Q8IU85 whole entry, looked up): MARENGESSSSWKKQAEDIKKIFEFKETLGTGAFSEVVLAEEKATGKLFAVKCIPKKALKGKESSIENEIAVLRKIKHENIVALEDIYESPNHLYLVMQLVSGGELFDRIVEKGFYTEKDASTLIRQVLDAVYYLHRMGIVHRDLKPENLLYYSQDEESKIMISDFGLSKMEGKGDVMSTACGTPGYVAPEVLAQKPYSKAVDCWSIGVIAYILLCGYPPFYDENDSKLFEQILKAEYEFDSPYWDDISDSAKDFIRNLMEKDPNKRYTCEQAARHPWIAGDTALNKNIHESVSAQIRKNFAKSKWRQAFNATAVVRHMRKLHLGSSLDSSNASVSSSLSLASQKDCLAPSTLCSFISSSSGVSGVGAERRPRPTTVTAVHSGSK
Chain of EIF2AK2 (human) (P19525 whole entry, looked up): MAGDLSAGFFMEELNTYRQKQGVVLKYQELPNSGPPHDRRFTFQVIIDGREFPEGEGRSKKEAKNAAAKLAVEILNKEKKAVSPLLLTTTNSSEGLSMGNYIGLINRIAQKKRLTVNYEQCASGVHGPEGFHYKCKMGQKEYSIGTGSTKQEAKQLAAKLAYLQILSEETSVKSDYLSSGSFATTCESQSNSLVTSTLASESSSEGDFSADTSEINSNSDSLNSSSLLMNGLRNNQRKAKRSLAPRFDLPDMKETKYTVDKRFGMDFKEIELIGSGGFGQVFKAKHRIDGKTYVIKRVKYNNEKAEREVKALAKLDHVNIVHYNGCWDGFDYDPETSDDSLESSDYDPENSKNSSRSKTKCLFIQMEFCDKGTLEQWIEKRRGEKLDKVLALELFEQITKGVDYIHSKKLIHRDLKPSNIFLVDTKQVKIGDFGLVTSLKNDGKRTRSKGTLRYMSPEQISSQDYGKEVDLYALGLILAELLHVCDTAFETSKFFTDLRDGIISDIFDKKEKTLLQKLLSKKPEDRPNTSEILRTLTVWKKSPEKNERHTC
Chain of CDKL2 (human) (Q92772 whole entry, looked up): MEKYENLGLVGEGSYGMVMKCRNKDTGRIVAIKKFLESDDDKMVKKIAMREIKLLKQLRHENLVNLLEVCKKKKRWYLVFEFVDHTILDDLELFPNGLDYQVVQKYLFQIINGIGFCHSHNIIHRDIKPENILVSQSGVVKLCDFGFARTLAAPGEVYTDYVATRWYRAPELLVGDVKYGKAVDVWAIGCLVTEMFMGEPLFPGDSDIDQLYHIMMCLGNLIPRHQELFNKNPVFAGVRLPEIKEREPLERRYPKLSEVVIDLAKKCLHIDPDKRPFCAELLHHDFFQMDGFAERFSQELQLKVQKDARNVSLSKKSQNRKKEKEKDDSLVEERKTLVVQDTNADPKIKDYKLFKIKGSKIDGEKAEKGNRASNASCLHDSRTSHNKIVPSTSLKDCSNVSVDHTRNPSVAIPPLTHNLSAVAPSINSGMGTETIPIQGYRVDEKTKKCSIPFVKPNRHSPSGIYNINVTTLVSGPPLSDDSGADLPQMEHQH
Chain of MAP4K1 (human) (Q92918 whole entry, looked up): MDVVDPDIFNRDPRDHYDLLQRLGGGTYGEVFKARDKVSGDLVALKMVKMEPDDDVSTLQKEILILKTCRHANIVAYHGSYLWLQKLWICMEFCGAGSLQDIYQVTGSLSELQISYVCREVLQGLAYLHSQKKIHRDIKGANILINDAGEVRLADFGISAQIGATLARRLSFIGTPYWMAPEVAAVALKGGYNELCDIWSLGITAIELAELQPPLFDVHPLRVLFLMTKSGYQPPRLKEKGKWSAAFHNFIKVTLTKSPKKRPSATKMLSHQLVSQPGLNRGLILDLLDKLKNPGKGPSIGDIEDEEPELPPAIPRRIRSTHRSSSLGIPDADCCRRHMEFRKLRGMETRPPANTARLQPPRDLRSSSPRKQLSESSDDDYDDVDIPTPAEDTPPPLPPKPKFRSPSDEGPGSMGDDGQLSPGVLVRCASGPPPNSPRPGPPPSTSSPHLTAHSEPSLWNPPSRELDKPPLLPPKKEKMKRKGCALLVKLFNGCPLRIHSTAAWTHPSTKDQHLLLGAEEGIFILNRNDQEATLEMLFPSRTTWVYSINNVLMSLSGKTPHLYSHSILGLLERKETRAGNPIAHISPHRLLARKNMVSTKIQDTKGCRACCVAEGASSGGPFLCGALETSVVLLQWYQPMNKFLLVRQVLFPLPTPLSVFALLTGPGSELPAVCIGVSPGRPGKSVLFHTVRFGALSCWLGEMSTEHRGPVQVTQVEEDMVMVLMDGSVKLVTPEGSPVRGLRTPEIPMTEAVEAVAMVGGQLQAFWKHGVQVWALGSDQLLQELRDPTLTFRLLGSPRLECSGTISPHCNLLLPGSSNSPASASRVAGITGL
Chain of CAMK4 (human) (Q16566 whole entry, looked up): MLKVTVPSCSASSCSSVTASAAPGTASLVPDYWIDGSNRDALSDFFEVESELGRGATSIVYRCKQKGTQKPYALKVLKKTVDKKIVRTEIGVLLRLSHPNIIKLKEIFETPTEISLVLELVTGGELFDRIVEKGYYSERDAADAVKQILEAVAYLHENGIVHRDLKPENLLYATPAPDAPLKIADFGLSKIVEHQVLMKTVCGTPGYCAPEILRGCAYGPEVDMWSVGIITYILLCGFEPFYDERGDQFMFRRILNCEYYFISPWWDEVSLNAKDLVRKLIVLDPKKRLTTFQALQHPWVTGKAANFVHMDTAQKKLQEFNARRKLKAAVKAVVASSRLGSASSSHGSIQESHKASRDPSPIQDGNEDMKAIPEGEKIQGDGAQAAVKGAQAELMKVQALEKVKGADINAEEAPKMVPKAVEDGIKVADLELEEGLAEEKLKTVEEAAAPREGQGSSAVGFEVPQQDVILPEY
Chain of AURKA (human) (O14965 whole entry, looked up): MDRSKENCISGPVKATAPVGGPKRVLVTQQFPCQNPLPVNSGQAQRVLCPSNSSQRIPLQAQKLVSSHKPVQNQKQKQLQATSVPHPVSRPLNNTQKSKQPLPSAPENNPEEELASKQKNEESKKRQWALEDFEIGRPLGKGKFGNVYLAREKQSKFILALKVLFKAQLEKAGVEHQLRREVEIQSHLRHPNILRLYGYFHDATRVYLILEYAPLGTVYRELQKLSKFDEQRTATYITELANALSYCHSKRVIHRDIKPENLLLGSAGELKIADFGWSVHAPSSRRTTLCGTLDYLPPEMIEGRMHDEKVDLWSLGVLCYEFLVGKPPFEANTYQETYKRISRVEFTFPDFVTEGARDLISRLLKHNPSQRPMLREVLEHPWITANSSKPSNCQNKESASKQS
Chain of PKN3 (M.tuberculosis) (Q6P5Z2 whole entry, looked up): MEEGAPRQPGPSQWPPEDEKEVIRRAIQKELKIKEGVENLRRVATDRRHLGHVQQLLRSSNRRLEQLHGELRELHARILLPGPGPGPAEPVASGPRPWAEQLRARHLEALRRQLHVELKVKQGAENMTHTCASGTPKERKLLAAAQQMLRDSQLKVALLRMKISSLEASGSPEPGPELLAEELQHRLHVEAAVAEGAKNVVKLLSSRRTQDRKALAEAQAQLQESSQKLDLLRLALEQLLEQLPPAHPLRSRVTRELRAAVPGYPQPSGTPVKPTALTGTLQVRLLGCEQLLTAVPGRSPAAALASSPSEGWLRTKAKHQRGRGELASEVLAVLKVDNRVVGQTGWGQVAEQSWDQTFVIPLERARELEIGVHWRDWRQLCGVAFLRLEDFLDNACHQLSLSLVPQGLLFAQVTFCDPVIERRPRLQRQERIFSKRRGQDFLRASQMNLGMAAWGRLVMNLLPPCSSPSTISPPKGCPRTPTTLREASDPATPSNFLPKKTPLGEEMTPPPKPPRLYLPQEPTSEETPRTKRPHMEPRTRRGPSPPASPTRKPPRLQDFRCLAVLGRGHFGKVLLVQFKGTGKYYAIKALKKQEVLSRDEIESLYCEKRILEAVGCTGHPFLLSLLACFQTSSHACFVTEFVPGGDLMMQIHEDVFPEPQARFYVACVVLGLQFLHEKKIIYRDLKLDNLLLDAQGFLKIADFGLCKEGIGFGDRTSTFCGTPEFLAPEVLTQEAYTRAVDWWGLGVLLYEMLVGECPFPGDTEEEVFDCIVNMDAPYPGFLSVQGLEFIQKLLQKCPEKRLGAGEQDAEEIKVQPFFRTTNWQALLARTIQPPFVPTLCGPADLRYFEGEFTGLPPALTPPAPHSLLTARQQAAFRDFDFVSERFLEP
Chain of GRK7 (human) (Q8WTQ7 whole entry, looked up): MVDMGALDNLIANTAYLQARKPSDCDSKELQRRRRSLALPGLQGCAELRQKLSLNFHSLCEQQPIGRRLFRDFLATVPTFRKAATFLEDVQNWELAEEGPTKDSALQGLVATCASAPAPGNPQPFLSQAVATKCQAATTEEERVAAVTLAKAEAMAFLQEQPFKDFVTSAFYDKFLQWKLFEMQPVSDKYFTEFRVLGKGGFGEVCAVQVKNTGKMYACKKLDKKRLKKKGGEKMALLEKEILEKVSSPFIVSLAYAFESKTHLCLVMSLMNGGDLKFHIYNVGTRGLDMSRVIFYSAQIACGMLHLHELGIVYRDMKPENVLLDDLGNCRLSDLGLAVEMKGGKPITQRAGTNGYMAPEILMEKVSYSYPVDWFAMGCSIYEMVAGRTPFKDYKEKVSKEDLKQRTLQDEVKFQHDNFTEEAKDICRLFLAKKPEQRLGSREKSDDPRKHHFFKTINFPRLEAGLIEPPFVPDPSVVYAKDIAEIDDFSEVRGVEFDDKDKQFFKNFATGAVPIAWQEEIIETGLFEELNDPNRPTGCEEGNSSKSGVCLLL
Chain of TSSK1B (human) (Q9BXA7 whole entry, looked up): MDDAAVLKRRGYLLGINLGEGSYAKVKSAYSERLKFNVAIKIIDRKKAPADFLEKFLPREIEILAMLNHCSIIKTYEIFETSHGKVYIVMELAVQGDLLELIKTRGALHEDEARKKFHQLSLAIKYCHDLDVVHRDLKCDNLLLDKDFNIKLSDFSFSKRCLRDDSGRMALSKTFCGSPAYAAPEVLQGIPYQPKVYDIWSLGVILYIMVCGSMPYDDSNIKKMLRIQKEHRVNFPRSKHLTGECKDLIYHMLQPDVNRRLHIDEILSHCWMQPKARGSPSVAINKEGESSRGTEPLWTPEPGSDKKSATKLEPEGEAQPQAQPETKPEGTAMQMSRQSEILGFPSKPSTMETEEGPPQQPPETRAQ

Compound: CNC(=O)c1cc(Oc2ccc(NC(=O)Nc3ccc(Cl)c(C(F)(F)F)c3)cc2)ccn1
- per cent of control (CAMK1D (human)): 88%
- per cent of control [1]: 0%
- per cent of control (WEE1 (human)): 100%
- per cent of control (CDKL2 (human)): 0.05%
- per cent of control (TGFBR1 (human)): 100%
- per cent of control (RIOK1 (human)): 100%
- per cent of control (STK36 (human)): 16%
- per cent of control (IKBKE (human)): 100%
- per cent of control (DYRK2 (human)): 60%
- per cent of control [2]: 0.45%
- per cent of control (MAPK7 (human)): 81%
- per cent of control (PIK3C2G (human)): 100%
- per cent of control (CDK19 (human)): 0.7%
- per cent of control (PLK4 (human)): 46%
- per cent of control (CAMK1G (human)): 87%
- per cent of control (NUAK1 (human)): 74%
- per cent of control (MARK3 (human)): 86%
- per cent of control [3]: 0%
- per cent of control (MELK (human)): 83%
- per cent of control (WEE2 (human)): 100%
- per cent of control (HIPK1 (human)): 17%
- per cent of control (MAP4K1 (human)): 19%
- per cent of control (TSSK1B (human)): 98%
- per cent of control (AURKA (human)): 83%
- per cent of control (TBK1 (human)): 100%
- per cent of control [4]: 25%
- per cent of control (MKNK2 (human)): 0.1%
- per cent of control (MAP2K7 (human)): 92%
- per cent of control [5]: 100%
- per cent of control (EIF2AK2 (human)): 74%
- per cent of control (LYN (human)): 11%
- residual activity (PKN3 (M.tuberculosis)): 100%
- per cent of control (MUSK (human)): 0%
- per cent of control (GRK7 (human)): 100%
- per cent of control (FGFR1 (human)): 3.4%
- per cent of control (NLK (human)): 19%
- per cent of control (DDR2 (human)): 13%
- per cent of control (NEK5 (human)): 100%
- per cent of control (PIP4K2C (human)): 34%
- per cent of control (CAMK4 (human)): 42%
- per cent of control (STK32C (human)): 72%

Compound: CNC(=O)c1cc(Oc2ccc(NC(=O)Nc3ccc(Cl)c(C(F)(F)F)c3)cc2)cc[n+]1[O-]
- per cent of control (CAMK1D (human)): 75%
- per cent of control [1]: 0%
- per cent of control (WEE1 (human)): 100%
- per cent of control (CDKL2 (human)): 0.1%
- per cent of control (TGFBR1 (human)): 100%
- per cent of control (RIOK1 (human)): 100%
- per cent of control (STK36 (human)): 26%
- per cent of control (IKBKE (human)): 100%
- per cent of control (DYRK2 (human)): 26%
- per cent of control [2]: 0.45%
- per cent of control (MAPK7 (human)): 65%
- per cent of control (PIK3C2G (human)): 100%
- per cent of control (CDK19 (human)): 0.35%
- per cent of control (PLK4 (human)): 5.2%
- per cent of control (CAMK1G (human)): 76%
- per cent of control (NUAK1 (human)): 100%
- per cent of control (MARK3 (human)): 86%
- per cent of control [3]: 0%
- per cent of control (MELK (human)): 65%
- per cent of control (WEE2 (human)): 94%
- per cent of control (HIPK1 (human)): 44%
- per cent of control (MAP4K1 (human)): 6%
- per cent of control (TSSK1B (human)): 100%
- per cent of control (AURKA (human)): 26%
- per cent of control (TBK1 (human)): 100%
- per cent of control [4]: 50%
- per cent of control (MKNK2 (human)): 0.05%
- per cent of control (MAP2K7 (human)): 63%
- per cent of control [5]: 100%
- per cent of control (EIF2AK2 (human)): 58%
- per cent of control (LYN (human)): 11%
- residual activity (PKN3 (M.tuberculosis)): 100%
- per cent of control (MUSK (human)): 0.2%
- per cent of control (GRK7 (human)): 100%
- per cent of control (FGFR1 (human)): 9.7%
- per cent of control (NLK (human)): 11%
- per cent of control (DDR2 (human)): 19%
- per cent of control (NEK5 (human)): 100%
- per cent of control (PIP4K2C (human)): 16%
- per cent of control (CAMK4 (human)): 54%
- per cent of control (STK32C (human)): 87%
